Article PMC9569420 (Communications Biology, 2022)
pIC50: −log10 of the molar value.

Key:
ALK1/ACVRL1 = target: T1, ALK1/ACVRL1 (Homo sapiens, UniProt P37023); experiment: HotSpot kinase assay; type: biochemical; settings: read-out: % Enzyme Activity (relative to DMSO controls)
T1 construct: purchased Reaction Biology Corporation

Aurora A = target: T2, Aurora A (Homo sapiens, UniProt O14965); experiment: HotSpot kinase assay; type: biochemical; settings: read-out: % Enzyme Activity (relative to DMSO controls)
T2 construct: purchased Reaction Biology Corporation

Aurora B = target: T3, Aurora B (Homo sapiens, UniProt Q96GD4); experiment: HotSpot kinase assay; type: biochemical; settings: read-out: % Enzyme Activity (relative to DMSO controls)
T3 construct: purchased Reaction Biology Corporation

BMX/ETK = target: T4, BMX/ETK (Homo sapiens, UniProt P51813); experiment: HotSpot kinase assay; type: biochemical; settings: read-out: % Enzyme Activity (relative to DMSO controls)
T4 construct: purchased Reaction Biology Corporation

CAMK1b = target: T5, CAMK1b (Homo sapiens, UniProt Q6P2M8); experiment: HotSpot kinase assay; type: biochemical; settings: read-out: % Enzyme Activity (relative to DMSO controls)
T5 construct: purchased Reaction Biology Corporation

CAMK2a = target: T6, CAMK2a (Homo sapiens, UniProt Q9UQM7); experiment: HotSpot kinase assay; type: biochemical; settings: read-out: % Enzyme Activity (relative to DMSO controls)
T6 construct: purchased Reaction Biology Corporation

CAMK4 = target: T7, CAMK4 (Homo sapiens, UniProt Q16566); experiment: HotSpot kinase assay; type: biochemical; settings: read-out: % Enzyme Activity (relative to DMSO controls)
T7 construct: purchased Reaction Biology Corporation

CDK1/cyclin B = target: T8, CDK1/cyclin B (Homo sapiens, UniProt P06493); experiment: HotSpot kinase assay; type: biochemical; settings: read-out: % Enzyme Activity (relative to DMSO controls)
T8 construct: purchased Reaction Biology Corporation

CDK2/cyclin A = target: T9, CDK2/cyclin A (Homo sapiens, UniProt P24941); experiment: HotSpot kinase assay; type: biochemical; settings: read-out: % Enzyme Activity (relative to DMSO controls)
T9 construct: purchased Reaction Biology Corporation

CDK2/cyclin E2 = target: T10, CDK2/cyclin E2 (Homo sapiens, UniProt P24941); experiment: HotSpot kinase assay; type: biochemical; settings: read-out: % Enzyme Activity (relative to DMSO controls)
T10 construct: purchased Reaction Biology Corporation

CLK2 = target: T11, CLK2 (Homo sapiens, UniProt P49760); experiment: HotSpot kinase assay; type: biochemical; settings: read-out: % Enzyme Activity (relative to DMSO controls)
T11 construct: purchased Reaction Biology Corporation

FRK/PTK5 = target: T12, FRK/PTK5 (Homo sapiens, UniProt P42685); experiment: HotSpot kinase assay; type: biochemical; settings: read-out: % Enzyme Activity (relative to DMSO controls)
T12 construct: purchased Reaction Biology Corporation

IKKa/CHUK = target: T13, IKKa/CHUK (Homo sapiens, UniProt O15111); experiment: HotSpot kinase assay; type: biochemical; settings: read-out: % Enzyme Activity (relative to DMSO controls)
T13 construct: purchased Reaction Biology Corporation

IR = target: T14, IR (Homo sapiens, UniProt P06213); experiment: biochemical
T14 construct: purchased Reaction Biology Corporation

IRAK4 = target: T15, IRAK4 (Homo sapiens, UniProt Q9NWZ3); experiment: HotSpot kinase assay; type: biochemical; settings: read-out: % Enzyme Activity (relative to DMSO controls)
T15 construct: purchased Reaction Biology Corporation

JNK3 = target: T16, JNK3 (Homo sapiens, UniProt P53779); experiment: HotSpot kinase assay; type: biochemical; settings: read-out: % Enzyme Activity (relative to DMSO controls)
T16 construct: purchased Reaction Biology Corporation

MARK3 = target: T17, MARK3 (Homo sapiens, UniProt P27448); experiment: HotSpot kinase assay; type: biochemical; settings: read-out: % Enzyme Activity (relative to DMSO controls)
T17 construct: purchased Reaction Biology Corporation

MEK2 = target: T18, MEK2 (Homo sapiens, UniProt P36507); experiment: HotSpot kinase assay; type: biochemical; settings: read-out: % Enzyme Activity (relative to DMSO controls)
T18 construct: purchased Reaction Biology Corporation

MLK4 = target: T19, MLK4 (Homo sapiens, UniProt Q5TCX8); experiment: HotSpot kinase assay; type: biochemical; settings: read-out: % Enzyme Activity (relative to DMSO controls)
T19 construct: purchased Reaction Biology Corporation

MYO3b = target: T20, MYO3b (Homo sapiens, UniProt Q8WXR4); experiment: HotSpot kinase assay; type: biochemical; settings: read-out: % Enzyme Activity (relative to DMSO controls)
T20 construct: purchased Reaction Biology Corporation

P38d/MAPK13 = target: T21, P38d/MAPK13 (Homo sapiens, UniProt O15264); experiment: HotSpot kinase assay; type: biochemical; settings: read-out: % Enzyme Activity (relative to DMSO controls)
T21 construct: purchased Reaction Biology Corporation

PAK4 = target: T22, PAK4 (Homo sapiens, UniProt O96013); experiment: HotSpot kinase assay; type: biochemical; settings: read-out: % Enzyme Activity (relative to DMSO controls)
T22 construct: purchased Reaction Biology Corporation

PHKg1 = target: T23, PHKg1 (Homo sapiens, UniProt Q16816); experiment: HotSpot kinase assay; type: biochemical; settings: read-out: % Enzyme Activity (relative to DMSO controls)
T23 construct: purchased Reaction Biology Corporation

PIM3 = target: T24, PIM3 (Homo sapiens, UniProt Q86V86); experiment: HotSpot kinase assay; type: biochemical; settings: read-out: % Enzyme Activity (relative to DMSO controls)
T24 construct: purchased Reaction Biology Corporation

PKAcb = target: T25, PKAcb (Homo sapiens, UniProt P22694); experiment: HotSpot kinase assay; type: biochemical; settings: read-out: % Enzyme Activity (relative to DMSO controls)
T25 construct: purchased Reaction Biology Corporation

PKCa = target: T26, PKCa (Homo sapiens, UniProt P17252); experiment: HotSpot kinase assay; type: biochemical; settings: read-out: % Enzyme Activity (relative to DMSO controls)
T26 construct: purchased Reaction Biology Corporation

PKCb2 = target: T27, PKCb2 (Homo sapiens, UniProt P05771); experiment: HotSpot kinase assay; type: biochemical; settings: read-out: % Enzyme Activity (relative to DMSO controls)
T27 construct: purchased Reaction Biology Corporation

PKCtheta = target: T28, PKCtheta (Homo sapiens, UniProt Q04759); experiment: HotSpot kinase assay; type: biochemical; settings: read-out: % Enzyme Activity (relative to DMSO controls)
T28 construct: purchased Reaction Biology Corporation

PKG1a = target: T29, PKG1a (Homo sapiens, UniProt Q13976); experiment: HotSpot kinase assay; type: biochemical; settings: read-out: % Enzyme Activity (relative to DMSO controls)
T29 construct: purchased Reaction Biology Corporation

PKG1b = target: T30, PKG1b (Homo sapiens, UniProt Q13976); experiment: HotSpot kinase assay; type: biochemical; settings: read-out: % Enzyme Activity (relative to DMSO controls)
T30 construct: purchased Reaction Biology Corporation

PKN1/PRK1 = target: T31, PKN1/PRK1 (Homo sapiens, UniProt Q16512); experiment: HotSpot kinase assay; type: biochemical; settings: read-out: % Enzyme Activity (relative to DMSO controls)
T31 construct: purchased Reaction Biology Corporation

PKN2/PRK2 = target: T32, PKN2/PRK2 (Homo sapiens, UniProt Q16513); experiment: HotSpot kinase assay; type: biochemical; settings: read-out: % Enzyme Activity (relative to DMSO controls)
T32 construct: purchased Reaction Biology Corporation

PKN3/PRK3 = target: T33, PKN3/PRK3 (Homo sapiens, UniProt Q6P5Z2); experiment: HotSpot kinase assay; type: biochemical; settings: read-out: % Enzyme Activity (relative to DMSO controls)
T33 construct: purchased Reaction Biology Corporation

RIPK2 = target: T34, RIPK2 (Homo sapiens, UniProt O43353); experiment: HotSpot kinase assay; type: biochemical; settings: read-out: % Enzyme Activity (relative to DMSO controls)
T34 construct: purchased Reaction Biology Corporation

SIK1 = target: T35, SIK1 (Homo sapiens, UniProt P57059); experiment: HotSpot kinase assay; type: biochemical; settings: read-out: % Enzyme Activity (relative to DMSO controls)
T35 construct: purchased Reaction Biology Corporation

SLK/STK2 = target: T36, SLK/STK2 (Homo sapiens, UniProt Q9H2G2); experiment: HotSpot kinase assay; type: biochemical; settings: read-out: % Enzyme Activity (relative to DMSO controls)
T36 construct: purchased Reaction Biology Corporation

STK32B/YANK2 = target: T37, STK32B/YANK2 (Homo sapiens, UniProt Q9NY57); experiment: HotSpot kinase assay; type: biochemical; settings: read-out: % Enzyme Activity (relative to DMSO controls)
T37 construct: purchased Reaction Biology Corporation

TAK1 = target: T38, TAK1 (Homo sapiens, UniProt O43318); experiment: HotSpot kinase assay; type: biochemical; settings: read-out: % Enzyme Activity (relative to DMSO controls)
T38 construct: purchased Reaction Biology Corporation

TYK1/LTK = target: T39, TYK1/LTK (Homo sapiens, UniProt P29376); experiment: HotSpot kinase assay; type: biochemical; settings: read-out: % Enzyme Activity (relative to DMSO controls)
T39 construct: purchased Reaction Biology Corporation

EIF2AK2 = target: T40, EIF2AK2 (Homo sapiens, UniProt P19525); experiment: HotSpot kinase assay; type: biochemical; settings: read-out: % Enzyme Activity (relative to DMSO controls)
T40 construct: purchased Reaction Biology Corporation

VSV-S = type: cell-based, VSV pseudotyped with SARS-CoV-2 spike
MDCK-MDR1 cell = settings: 5 µM

T14 sequence (P06213 980-1382 limits assumed): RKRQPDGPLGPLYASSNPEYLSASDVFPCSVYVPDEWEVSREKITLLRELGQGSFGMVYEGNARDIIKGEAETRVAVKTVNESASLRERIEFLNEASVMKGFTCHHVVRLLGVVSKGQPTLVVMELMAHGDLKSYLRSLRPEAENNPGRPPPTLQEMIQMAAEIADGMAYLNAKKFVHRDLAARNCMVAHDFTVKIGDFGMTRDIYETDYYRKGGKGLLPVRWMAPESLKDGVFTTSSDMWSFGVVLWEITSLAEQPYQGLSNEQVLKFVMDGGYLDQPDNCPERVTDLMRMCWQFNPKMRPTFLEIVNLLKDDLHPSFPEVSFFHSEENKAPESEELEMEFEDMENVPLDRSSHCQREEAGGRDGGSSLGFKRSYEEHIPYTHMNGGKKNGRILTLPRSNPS
T17 sequence (P27448 whole entry): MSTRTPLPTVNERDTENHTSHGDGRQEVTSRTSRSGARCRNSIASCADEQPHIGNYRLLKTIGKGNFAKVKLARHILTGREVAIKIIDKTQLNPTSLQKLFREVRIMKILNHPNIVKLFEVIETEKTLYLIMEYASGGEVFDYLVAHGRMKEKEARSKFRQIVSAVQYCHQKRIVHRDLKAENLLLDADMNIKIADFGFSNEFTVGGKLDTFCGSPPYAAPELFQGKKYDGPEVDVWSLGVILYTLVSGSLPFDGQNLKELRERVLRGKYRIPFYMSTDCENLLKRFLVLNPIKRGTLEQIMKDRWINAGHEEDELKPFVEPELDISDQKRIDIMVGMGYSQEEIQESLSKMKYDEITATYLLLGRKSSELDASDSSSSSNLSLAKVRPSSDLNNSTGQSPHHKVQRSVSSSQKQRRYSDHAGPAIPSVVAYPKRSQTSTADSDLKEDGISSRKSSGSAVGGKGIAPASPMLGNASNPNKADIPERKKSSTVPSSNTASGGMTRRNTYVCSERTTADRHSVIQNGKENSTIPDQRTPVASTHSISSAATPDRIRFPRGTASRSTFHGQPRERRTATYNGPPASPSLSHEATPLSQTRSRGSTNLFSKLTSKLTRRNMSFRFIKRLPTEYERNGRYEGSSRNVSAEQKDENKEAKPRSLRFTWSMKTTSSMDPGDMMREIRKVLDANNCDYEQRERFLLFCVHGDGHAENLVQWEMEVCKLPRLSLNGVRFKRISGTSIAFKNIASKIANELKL
T7 sequence (Q16566 whole entry): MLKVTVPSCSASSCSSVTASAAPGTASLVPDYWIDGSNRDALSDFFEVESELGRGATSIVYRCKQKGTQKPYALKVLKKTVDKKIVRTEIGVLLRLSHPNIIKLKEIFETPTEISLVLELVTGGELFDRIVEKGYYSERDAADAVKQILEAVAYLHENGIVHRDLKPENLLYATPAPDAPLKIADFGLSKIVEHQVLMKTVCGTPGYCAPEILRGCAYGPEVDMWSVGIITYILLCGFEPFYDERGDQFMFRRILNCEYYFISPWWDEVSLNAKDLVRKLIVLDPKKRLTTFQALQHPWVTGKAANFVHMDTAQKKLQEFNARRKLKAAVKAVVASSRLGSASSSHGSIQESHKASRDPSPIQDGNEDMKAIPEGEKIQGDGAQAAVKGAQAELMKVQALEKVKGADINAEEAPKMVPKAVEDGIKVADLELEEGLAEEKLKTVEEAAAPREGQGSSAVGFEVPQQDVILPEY
T13 sequence (O15111 whole entry): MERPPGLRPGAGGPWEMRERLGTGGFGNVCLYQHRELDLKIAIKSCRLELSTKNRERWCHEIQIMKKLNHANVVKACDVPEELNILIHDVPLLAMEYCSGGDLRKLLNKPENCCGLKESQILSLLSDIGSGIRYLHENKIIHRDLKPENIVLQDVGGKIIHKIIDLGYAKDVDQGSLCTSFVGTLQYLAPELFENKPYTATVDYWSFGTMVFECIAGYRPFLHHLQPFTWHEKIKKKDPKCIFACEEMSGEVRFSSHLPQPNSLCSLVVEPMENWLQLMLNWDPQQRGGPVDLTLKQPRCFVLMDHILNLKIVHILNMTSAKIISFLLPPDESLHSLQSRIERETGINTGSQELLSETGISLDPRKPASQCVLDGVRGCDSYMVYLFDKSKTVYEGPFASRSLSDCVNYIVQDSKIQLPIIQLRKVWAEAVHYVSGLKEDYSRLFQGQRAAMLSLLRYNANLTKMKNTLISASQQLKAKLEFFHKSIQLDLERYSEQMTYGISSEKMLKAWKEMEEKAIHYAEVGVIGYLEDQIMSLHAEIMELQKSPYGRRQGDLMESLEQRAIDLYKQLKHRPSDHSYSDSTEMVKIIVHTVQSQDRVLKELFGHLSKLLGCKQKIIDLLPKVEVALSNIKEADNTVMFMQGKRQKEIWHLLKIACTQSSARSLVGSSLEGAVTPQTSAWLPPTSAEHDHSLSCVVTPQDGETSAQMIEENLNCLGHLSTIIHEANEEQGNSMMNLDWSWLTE
T8 sequence (P06493 whole entry): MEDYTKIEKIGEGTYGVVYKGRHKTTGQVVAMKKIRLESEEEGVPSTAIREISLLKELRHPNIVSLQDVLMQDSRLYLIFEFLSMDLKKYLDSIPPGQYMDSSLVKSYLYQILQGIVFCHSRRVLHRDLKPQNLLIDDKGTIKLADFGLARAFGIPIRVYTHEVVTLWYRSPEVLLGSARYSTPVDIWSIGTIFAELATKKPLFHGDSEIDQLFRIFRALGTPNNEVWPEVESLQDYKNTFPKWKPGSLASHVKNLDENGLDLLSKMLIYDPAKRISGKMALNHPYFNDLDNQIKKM
T8 sequence (P14635 whole entry partner): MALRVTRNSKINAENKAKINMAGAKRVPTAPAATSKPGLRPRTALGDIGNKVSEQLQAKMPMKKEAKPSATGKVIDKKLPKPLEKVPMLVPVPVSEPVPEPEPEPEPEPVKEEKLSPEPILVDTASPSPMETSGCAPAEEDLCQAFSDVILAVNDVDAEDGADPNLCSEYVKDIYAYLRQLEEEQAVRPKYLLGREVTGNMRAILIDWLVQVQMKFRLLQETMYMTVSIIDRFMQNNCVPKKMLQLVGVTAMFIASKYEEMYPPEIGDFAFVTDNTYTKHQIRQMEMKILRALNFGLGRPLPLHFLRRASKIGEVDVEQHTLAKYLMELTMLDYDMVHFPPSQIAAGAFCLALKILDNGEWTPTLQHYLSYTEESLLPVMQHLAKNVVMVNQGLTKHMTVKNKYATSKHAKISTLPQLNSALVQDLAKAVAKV
T28 sequence (Q04759 whole entry): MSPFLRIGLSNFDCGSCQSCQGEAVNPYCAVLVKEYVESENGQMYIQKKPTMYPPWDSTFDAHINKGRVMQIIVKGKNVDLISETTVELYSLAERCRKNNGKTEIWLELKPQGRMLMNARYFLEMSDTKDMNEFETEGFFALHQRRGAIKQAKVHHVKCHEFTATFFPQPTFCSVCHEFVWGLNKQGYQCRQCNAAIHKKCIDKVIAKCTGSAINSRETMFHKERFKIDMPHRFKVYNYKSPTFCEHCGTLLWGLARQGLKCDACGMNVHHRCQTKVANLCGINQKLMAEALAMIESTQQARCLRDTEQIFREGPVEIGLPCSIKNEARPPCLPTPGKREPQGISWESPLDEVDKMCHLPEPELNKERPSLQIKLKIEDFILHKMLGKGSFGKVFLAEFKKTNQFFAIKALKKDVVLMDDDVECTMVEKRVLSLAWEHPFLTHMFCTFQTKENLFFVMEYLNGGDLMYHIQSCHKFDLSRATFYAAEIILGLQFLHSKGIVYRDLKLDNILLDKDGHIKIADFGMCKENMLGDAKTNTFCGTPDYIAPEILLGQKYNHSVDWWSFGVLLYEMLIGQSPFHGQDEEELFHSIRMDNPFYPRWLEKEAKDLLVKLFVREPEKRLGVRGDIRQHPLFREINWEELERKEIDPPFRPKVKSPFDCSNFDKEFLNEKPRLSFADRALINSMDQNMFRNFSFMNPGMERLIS
T5 sequence (Q6P2M8 whole entry): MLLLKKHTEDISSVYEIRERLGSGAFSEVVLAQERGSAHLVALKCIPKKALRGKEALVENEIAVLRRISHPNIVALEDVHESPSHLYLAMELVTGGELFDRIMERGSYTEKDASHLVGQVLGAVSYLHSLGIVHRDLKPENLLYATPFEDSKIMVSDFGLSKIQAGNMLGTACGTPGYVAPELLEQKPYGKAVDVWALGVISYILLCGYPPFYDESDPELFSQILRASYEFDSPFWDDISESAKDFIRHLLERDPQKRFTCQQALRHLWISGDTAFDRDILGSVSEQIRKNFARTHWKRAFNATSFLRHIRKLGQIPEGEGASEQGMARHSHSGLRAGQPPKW
T35 sequence (P57059 whole entry): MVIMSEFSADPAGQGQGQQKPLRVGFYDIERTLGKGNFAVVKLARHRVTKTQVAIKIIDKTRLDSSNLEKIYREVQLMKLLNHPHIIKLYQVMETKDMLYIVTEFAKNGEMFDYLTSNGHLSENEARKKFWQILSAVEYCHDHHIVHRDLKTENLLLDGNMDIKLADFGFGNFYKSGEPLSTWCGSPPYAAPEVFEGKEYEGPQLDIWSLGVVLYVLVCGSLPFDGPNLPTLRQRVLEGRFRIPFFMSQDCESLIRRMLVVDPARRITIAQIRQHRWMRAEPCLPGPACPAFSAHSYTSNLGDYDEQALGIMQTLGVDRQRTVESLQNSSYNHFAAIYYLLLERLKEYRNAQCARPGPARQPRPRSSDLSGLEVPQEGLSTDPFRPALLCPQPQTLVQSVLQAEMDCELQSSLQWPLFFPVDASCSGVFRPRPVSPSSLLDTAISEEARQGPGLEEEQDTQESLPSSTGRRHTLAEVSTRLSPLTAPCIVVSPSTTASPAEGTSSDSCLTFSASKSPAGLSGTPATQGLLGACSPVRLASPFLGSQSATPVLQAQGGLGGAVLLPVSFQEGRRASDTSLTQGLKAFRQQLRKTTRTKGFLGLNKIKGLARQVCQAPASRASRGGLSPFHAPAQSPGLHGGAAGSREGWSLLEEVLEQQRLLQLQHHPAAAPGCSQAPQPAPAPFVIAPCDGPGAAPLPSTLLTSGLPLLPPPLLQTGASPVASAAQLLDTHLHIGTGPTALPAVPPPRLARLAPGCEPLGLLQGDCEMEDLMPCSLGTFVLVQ

CO[C@@H]1[C@H](N(C)C(=O)CCC(=O)NCc2cn(CCCS(=O)(=O)O)nn2)C[C@H]2O[C@]1(C)n1c3ccccc3c3c4c(c5c6ccccc6n2c5c31)C(=O)NC4 [CIMSS]
remaining activity at 10 µM (ALK1/ACVRL1): 70%
remaining activity at 10 µM (Aurora A): 1.92%
remaining activity at 10 µM (Aurora B): 2.85%
remaining activity at 10 µM (BMX/ETK): 2.19%
remaining activity at 10 µM (CAMK1b): 59.5%
remaining activity at 10 µM (CAMK2a): 1.36%
remaining activity at 10 µM (CAMK4): 66.6%
remaining activity at 10 µM (CDK1/cyclin B): 13.6%
remaining activity at 10 µM (CDK2/cyclin A): 5.14%
remaining activity at 10 µM (CDK2/cyclin E2): 11.8%
remaining activity at 10 µM (CLK2): 4.13%
remaining activity at 10 µM (FRK/PTK5): 4.49%
remaining activity at 10 µM (IKKa/CHUK): 31.6%
pIC50 (IR; Supplementary Table 1, Insulin Receptor, read-out: IC50 (Molar concentration)): 6.10
remaining activity at 10 µM (IR; read-out: % Enzyme Activity (relative to DMSO controls), 10µM): 15.8%
remaining activity at 10 µM (IRAK4): 6.48%
remaining activity at 10 µM (JNK3): 23.6%
remaining activity at 10 µM (MARK3): 1.8%
remaining activity at 10 µM (MEK2): 68%
remaining activity at 10 µM (MLK4): 0.87%
remaining activity at 10 µM (MYO3b): 4.81%
remaining activity at 10 µM (P38d/MAPK13): 74.7%
remaining activity at 10 µM (PAK4): 7.78%
remaining activity at 10 µM (PHKg1): 3.74%
remaining activity at 10 µM (PIM3): 2.51%
remaining activity at 10 µM (PKAcb): 1.62%
remaining activity at 10 µM (PKCa): 0.86%
remaining activity at 10 µM (PKCb2): 1.71%
remaining activity at 10 µM (PKCtheta): 7.08%
remaining activity at 10 µM (PKG1a): 7.02%
remaining activity at 10 µM (PKG1b): 13.9%
remaining activity at 10 µM (PKN1/PRK1): 2.22%
remaining activity at 10 µM (PKN2/PRK2): 6.62%
remaining activity at 10 µM (PKN3/PRK3): 20.2%
remaining activity at 10 µM (RIPK2): 41.7%
remaining activity at 10 µM (SIK1): 1%
remaining activity at 10 µM (SLK/STK2): 6.42%
remaining activity at 10 µM (STK32B/YANK2): 0.96%
remaining activity at 10 µM (TAK1): 7.2%
remaining activity at 10 µM (TYK1/LTK): 7.18%
remaining activity at 10 µM (EIF2AK2): 9.89%
VSV-S infection (VSV-S): inhibited
Recover % (MDCK-MDR1 cell): 96%
levels of phosphorylated Akt (serine 473 and threonine 308) in non-permeabilized cells (Akt, PDPK1, PLCγ; 10µM): reduce levels
phosphorylation of PDPK1 and PLCγ (Akt, PDPK1, PLCγ; 10 µM, 15 and 30 min following viral infection): inhibited
